We go through six compounds from PMC10568461, “A pilot study of cerebral metabolism and serotonin 5-HT2A receptor occupancy in rats treated with the psychedelic tryptamine DMT in conjunction with the MAO inhibitor harmine” (Frontiers in Pharmacology, 2023).

pKd: −log10 of the molar value. Some results are limits rather than exact numbers.

A short description of series [1]: Brain concentrations of harmine, DMT and metabolites by UHPLC-MS after s.c. harmine and/or DMT. The note with it: for concentration at 95 min / concentration at 65 min: rat, subcutaneous.
Description: Groups of (n = 6) rats received either saline, harmine (1 mg/kg), DMT (1 mg/kg), or harmine + DMT (1 mg/kg each) as subcutaneous injections, as indicated in Figure 1.
After 45 min, rats were sacrificed by decapitation, and the brains dissected into cerebellum and frontal cortex samples for radioactivity measurement and chemical analysis, thus 65 min after harmine + DMT.
For series [2], the target named is T1, MAO-A (Rattus norvegicus, UniProt P21396).
T1 sequence (P21396 1-526): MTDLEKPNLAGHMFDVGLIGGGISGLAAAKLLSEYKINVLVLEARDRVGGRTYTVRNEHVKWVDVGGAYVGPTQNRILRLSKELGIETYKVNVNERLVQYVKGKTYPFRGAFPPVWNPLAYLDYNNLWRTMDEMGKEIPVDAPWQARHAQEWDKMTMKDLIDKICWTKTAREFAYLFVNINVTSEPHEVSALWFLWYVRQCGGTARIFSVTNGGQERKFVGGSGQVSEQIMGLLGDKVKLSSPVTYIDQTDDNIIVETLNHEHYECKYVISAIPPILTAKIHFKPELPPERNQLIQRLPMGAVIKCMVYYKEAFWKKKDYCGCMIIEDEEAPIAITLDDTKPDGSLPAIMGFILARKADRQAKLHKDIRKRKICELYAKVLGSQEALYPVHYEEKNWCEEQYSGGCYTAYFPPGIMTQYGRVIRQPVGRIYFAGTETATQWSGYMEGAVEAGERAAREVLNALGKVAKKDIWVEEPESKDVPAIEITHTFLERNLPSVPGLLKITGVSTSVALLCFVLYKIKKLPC
More on the design: method as in Maschauer et al., 2015. The note with it: ref Maschauer et al., 2015; read-out: Apparent affinity (KD) at MAO-binding sites in living rat brain; cited from earlier work.

For series [3], the target named is MAO-A. As to conditions: ref Maschauer et al., 2015; read-out: KD in vitro; cited from earlier work.
Series [4] deals with T1, MAO-A. Description: Apparent affinity at MAO binding sites in living brain. The class given is in vivo. The note with it: from values of ref Maschauer et al., 2015.
The test system of series [5] is 5-HT2A receptors. The note with it: cited from earlier work.
Setting [6] is: Exp 1, group DMT, average of regions.
The mark [7] stands for this setting: Exp 1, group Har + DMT, average of regions.
Where [8] appears, read: Exp 1, group Har + DMT, cerebellum.
Setting [9] is: Exp 1, group Har + DMT, front cort.
[10] abbreviates: Exp 2, group Har + DMT, average of regions.
[11] abbreviates: Exp 2, group Har + DMT, cerebellum.
Setting [12] is: Exp 2, group Har + DMT, front cort.
The mark [13] stands for this setting: brain (average of frontal cortex and cerebellum), 1 mg/kg, Molar concentration, Exp 1, group DMT, average of regions.
Where [14] appears, read: brain (average of frontal cortex and cerebellum), Molar concentration, Exp 1, group Har + DMT, average of regions.
[15] abbreviates: brain (average of frontal cortex and cerebellum), Molar concentration, Exp 2, group Har + DMT, average of regions.
Setting [16] is: cerebellum, 1 mg/kg, Molar concentration, Exp 1, group DMT, cerebellum.
Setting [17] is: cerebellum, Molar concentration, Exp 1, group Har + DMT, cerebellum.
Setting [18] is: cerebellum, Molar concentration, Exp 2, group Har + DMT, cerebellum.
[19] abbreviates: frontal cortex, 1 mg/kg, Molar concentration, Exp 1, group DMT, front cort.
[20] abbreviates: frontal cortex, Molar concentration, Exp 1, group Har + DMT, front cort.
Where [21] appears, read: frontal cortex, Molar concentration, Exp 2, group Har + DMT, front cort.

As to `O=C(O)Cc1c[nH]c2ccccc12` [3-IAA, indole-3-acetic acid], the “Percentage of total molar concentration of DMT and metabolites” value (shortened to “Percentage”) is 97.5% in series [1] (setting [6]); 97.9% in series [1] (Exp 1, group DMT, cerebellum); 97.3% in series [1] (Exp 1, group DMT, front cort); 64.7% in series [1] (setting [7]); 65.3% in series [1] (setting [8]); 64.2% in series [1] (setting [9]). Besides, the “Percentage” value in series [1] (setting [10]) is on record as 25.9%; in series [1] (setting [11]), 27.5%; in series [1] (setting [12]), 24.7%. Moreover, the Brain concentration in series [1] (Experiment 1, cerebellum, group DMT (1 mg/kg s.c.), 95 min, mean (SD)) is 398.5 (128.3) ng/g; in series [1] (Experiment 1, cerebellum, group Har + DMT (1 mg/kg each s.c.), 95 min, mean (SD)) it was 194.1 (117.2) ng/g; in series [1] (Experiment 1, frontal cortex, group DMT (1 mg/kg s.c.), 95 min, mean (SD)) it was 503.9 (137.7) ng/g; in series [1] (Experiment 1, frontal cortex, group Har + DMT (1 mg/kg each s.c.), 95 min, mean (SD)), 257.5 (103.6) ng/g; in series [1] (Experiment 2, cerebellum, group Har + DMT (3 mg/kg each s.c.), 65 min, mean (SD)), 530.7 (129.8) ng/g; in series [1] (Experiment 2, frontal cortex, group Har + DMT (3 mg/kg each s.c.), 65 min, mean (SD)), 652.1 (186.5) ng/g. The “Lower cerebral 3-IAA concentration after co-administration of harmine and DMT” value in series [1] (Experiment 1, versus DMT alone) is given as 50%. Also, the concentration at 95 min in series [1] (setting [13]) is 2580 nM; in series [1] (setting [14]), 1290 nM; in series [1] (cerebellum, 1 mg/kg, Brain concentration, Experiment 1, cerebellum, after DMT alone (1 mg/kg)), 2300 nM; in series [1] (cerebellum, 1 mg/kg, Brain concentration, Experiment 1, cerebellum, group DMT (1 mg/kg s.c.), 95 min, mean (SD)), 398 ng/g; in series [1] (setting [16]) it was 2270 nM; in series [1] (cerebellum, Brain concentration, Experiment 1, cerebellum, after harmine + DMT (1 mg/kg each)) it was 1100 nM. Also, the concentration at 95 min in series [1] (cerebellum, Brain concentration, Experiment 1, cerebellum, group Har (harmine 1 mg/kg s.c.), 95 min after drug, mean (SD)) turned out to be 11.1 ng/g; in series [1] (cerebellum, Brain concentration, Experiment 1, cerebellum, group Har + DMT (1 mg/kg each s.c.), 95 min, mean (SD)), 194 ng/g; in series [1] (setting [17]), 1110 nM; in series [1] (frontal cortex, 1 mg/kg, Brain concentration, Experiment 1, frontal cortex, after DMT alone (1 mg/kg)), 2900 nM; in series [1] (frontal cortex, 1 mg/kg, Brain concentration, Experiment 1, frontal cortex, group DMT (1 mg/kg s.c.), 95 min, mean (SD)), 504 ng/g; in series [1] (setting [19]), 2880 nM. For the same compound, the concentration at 95 min amounted to 1500 nM in series [1] (frontal cortex, Brain concentration, Experiment 1, frontal cortex, after harmine + DMT (1 mg/kg each), 95 min); 14.1 ng/g in series [1] (frontal cortex, Brain concentration, Experiment 1, frontal cortex, group Har (harmine 1 mg/kg s.c.), 95 min, mean (SD)); 258 ng/g in series [1] (frontal cortex, Brain concentration, Experiment 1, frontal cortex, group Har + DMT (1 mg/kg each s.c.), 95 min, mean (SD)); 1470 nM in series [1] (setting [20]). The concentration at 65 min in series [1] (setting [15]) stood at 3.38 µM; in series [1] (cerebellum, Brain concentration, Experiment 2, cerebellum, after harmine + DMT (3 mg/kg each)) it was 3 µM; in series [1] (cerebellum, Brain concentration, Experiment 2, cerebellum, group Har + DMT (3 mg/kg each s.c.), 65 min, mean (SD)) it was 531 ng/g; in series [1] (setting [18]), 3.03 µM; in series [1] (frontal cortex, Brain concentration, Experiment 2, frontal cortex, after harmine + DMT (3 mg/kg each), 65 min), 3.7 µM; in series [1] (frontal cortex, Brain concentration, Experiment 2, frontal cortex, group Har + DMT (3 mg/kg each s.c.), 65 min, mean (SD)), 652 ng/g. The concentration at 65 min in series [1] (setting [21]) turned out to be 3.72 µM.
On to `C[N+](C)([O-])CCc1c[nH]c2ccccc12` [DMT-N-Oxide, DMT-N-oxide], for which the Molar concentration in series [1] (setting [6]) was determined as 3.29 nmol/L; in series [1] (Exp 1, group DMT, cerebellum), 3.16 nmol/L; in series [1] (Exp 1, group DMT, front cort), 3.43 nmol/L; in series [1] (setting [7]), 27.52 nmol/L; in series [1] (setting [8]), 30.49 nmol/L; in series [1] (setting [9]), 24.54 nmol/L. For the same compound, the results for the Molar concentration in series [1] (setting [10]), in series [1] (setting [11]) and in series [1] (setting [12]) were 90.73 nmol/L, 131.9 nmol/L and 49.57 nmol/L, respectively. Further, the “Percentage” value turned out to be 0.1% in series [1] (setting [6]); 0.1% in series [1] (Exp 1, group DMT, cerebellum); 0.1% in series [1] (Exp 1, group DMT, front cort); 1.4% in series [1] (setting [7]); 1.8% in series [1] (setting [8]); 1.1% in series [1] (setting [9]). Further, the “Percentage” value came to 0.7% in series [1] (setting [10]), 1.2% in series [1] (setting [11]) and 0.3% in series [1] (setting [12]).
As to `CNCCc1c[nH]c2ccccc12` [NMT, N-methyltryptamine], the “Percentage” value in series [1] (setting [6]) is 0.0%; in series [1] (Exp 1, group DMT, cerebellum), 0.0%; in series [1] (Exp 1, group DMT, front cort) it was 0.0%; in series [1] (setting [7]) it was 0.1%; in series [1] (setting [8]), 0.1%; in series [1] (setting [9]), 0.0%. Also, the “Percentage” value in series [1] (setting [10]) turned out to be 0.1%; in series [1] (setting [11]), 0.2%; in series [1] (setting [12]) it was 0.1%. For the same compound, the concentration at 95 min in series [1] (setting [13]) is 0.15 nM; in series [1] (setting [14]) it was 1.14 nM; in series [1] (setting [16]), 0.15 nM; in series [1] (setting [17]), 1.38 nM; in series [1] (setting [19]), 0.16 nM; in series [1] (setting [20]), 0.89 nM. Besides, the concentration at 65 min is 0.0159 µM in series [1] (setting [15]), 0.0207 µM in series [1] (setting [18]) and 0.0112 µM in series [1] (setting [21]).
In general, pKd refers to the Kd on a negative log10 scale, so that one unit is a factor of ten. Consider `Cc1nccc2c1[nH]c1cc(OCCF)ccc12` [[^18F]fluoroethyl-harmol], for which the pKd was 6.52 in series [2] and 8.70 in series [3].
Regarding `Cc1nccc2c1[nH]c1cc(OCC[18F])ccc12` [[^18F]fluoroethyl-harmol], the “In vitro/in vivo affinity difference” value in series [4] was 150 fold.
On to `CN(C)CCc1c[nH]c2cccc(OP(=O)(O)O)c12` [psilocybin], for which the “Occupancy at 5-HT2A receptors” value in series [5] (PET with [^11C]Cimbi-36, ref Madsen et al., 2019) is given as at most 70%. For the same compound, the “Occupancy at 5-HT2A receptors in human frontal cortex” value in series [5] (PET with [^18F]altanserin, ref Hasler et al., 2009a) is recorded as at most 35%.
